In the OligoGym collection:
After the bases stand the sugars from the 5' end (letter, count) and the backbone: PS all phosphorothioate, else s phosphorothioate and o phosphodiester by linkage. Methylation of C is not given here. l = locked nucleic acid (LNA); d = 2'-deoxy (DNA)

Biological target: SNHG14
Conditions: ASO
[1] = Mouse Primary Neuronal Cell, 0.005 µM

Sequence	target mRNA inhibition (Human Neuronal Cell, 7.5 µM) [%]	target mRNA inhibition (Human Neuronal Cell, 0.2 µM) [%]	target mRNA inhibition (Human Neuronal Cell, 1 µM) [%]	also measured
ATATTGATTCAATTCCC (sugars lddllddddddlddlll, PS)	62			
ATATTGATTCAATTCCC (sugars lldddddddddldldll, PS)	60			
ATATTTGTCACCTAAC (sugars l4 d10 l2, PS)		33	32	
ATCATTCTCAACAATTA (sugars l1 d1 l3 d6 l6, PS)	-24			
ATCATTCTCAACAATTA (sugars l4 d7 l6, PS)	17			
ATCATTCTCAACAATTA (sugars l5 d6 l2 d2 l2, PS)	31			
ATCATTCTCAACAATTA (sugars l5 d7 l1 d1 l3, PS)	54			
ATCATTCTCAACAATTAA (sugars l5 d8 l5, PS)	48			
ATCCCTTTGTAATCAT (sugars l4 d10 l2, PS)		33	28	
ATCTCATGACCACCTAA (sugars ldldddddddddlldll, PS)	51			
ATCTGCTACATATTCT (sugars l4 d10 l2, PS)		41	61	
ATCTGCTACATATTCTT (sugars l4 d11 l2, PS)		50	59	
ATCTTTCCATTTATTTCCAT (sugars ldddddlddddddlddddll, PS)	41			
ATCTTTCCATTTATTTCCAT (sugars ldddldldddddddldddll, PS)	30			
ATTCTTACCGTCTTTA (sugars l4 d10 l2, PS)		49	60	
ATTGATTCAATTCCCTT (sugars l3 d8 l3 d1 l2, PS)	51			
ATTGATTCAATTCCCTT (sugars lddlddddddddldlll, PS)	67			
ATTGATTCAATTCCCTT (sugars lddlddddddddlldll, PS)	61			
ATTGATTCAATTCCCTT (sugars ldldddddddddldlll, PS)	54			
ATTTACACTTAATTATACTT (sugars lllldllddddddlldddll, PS)	38			
ATTTCATATTACTAACTA (sugars l2 d12 l4, PS)		3	20	
ATTTTTTTCTTACTATCTTC (sugars ldddllddddddddlddlll, PS)	58			

Sequence	target mRNA inhibition (Human Neuronal Cell, 7.5 µM) [%]	target mRNA inhibition (Human Neuronal Cell, 0.2 µM) [%]	target mRNA inhibition (Human Neuronal Cell, 1 µM) [%]	also measured
ATTTTTTTCTTACTATCTTC (sugars ldlldlldddddddddddll, PS)	69			
ATTTTTTTCTTACTATCTTC (sugars lldlddddddddddddldll, PS)	50			
CAAACCTACGTCTCTC (sugars l2 d10 l4, PS)		31	26	
CAAAGATCATTCTCAAC (sugars l1 d2 l2 d6 l6, PS)	34			
CAACATTATTAACCACCTT (sugars l1 d14 l4, PS)	47			
CAACATTATTAACCACCTTA (sugars l1 d13 l3 d1 l2, PS)	47			
CAACATTATTAACCACCTTA (sugars ldldldddddddddddldll, PS)	51			
CAACATTATTAACCACCTTA (sugars ldlldddddddddddlddll, PS)	57			
CAACTATTATCTTCTT (sugars l2 d10 l4, PS)		42	61	
CAACTCTATGACTACC (sugars l2 d10 l4, PS)		46	36	
CAAGTTTCCTATATTCT (sugars l4 d11 l2, PS)		66	70	
CACCTTAAGTAACATT (sugars l4 d10 l2, PS)		19	21	
CACTAATAATTCACTTT (sugars l4 d11 l2, PS)		31	49	
CAGCTTTTAACCAGAGT (sugars l2 d12 l3, PS)	79			
CAGTTTAAATTCACAC (sugars l3 d10 l3, PS)		34	46	
CATTATTATTTAACCTT (sugars l2 d11 l4, PS)		-2	14	
CATTTACAAGCACATA (sugars l2 d10 l4, PS)		43	37	
CCAAATAAGCAAACTC (sugars l3 d10 l3, PS)		60	39	
CCACCTAAGACCTCAA (sugars l2 d10 l4, PS)		53	60	
CCACTGATTTCCTTAAA (sugars l4 d11 l2, PS)		40	57	
CCATACAGTATATACA (sugars l4 d10 l2, PS)		31	56	
CCATTTATTTCCATTTAT (sugars l3 d12 l3, PS)		38	59	

Sequence	target mRNA inhibition (Human Neuronal Cell, 7.5 µM) [%]	target mRNA inhibition (Human Neuronal Cell, 0.2 µM) [%]	target mRNA inhibition (Human Neuronal Cell, 1 µM) [%]	also measured
CCATTTATTTCCATTTATT (sugars lddldddddddddlldlll, PS)	59			
CCATTTATTTCCATTTATTT (sugars ldldddddddddddllddll, PS)	52			
CCCAAATAAGCAAACT (sugars l4 d10 l2, PS)		35	43	
CCCATTTCTAACATTTAC (sugars l3 d12 l3, PS)		50	64	
CCCTTATAGTTATTAA (sugars l3 d10 l3, PS)		26	13	
CCTAAGCTCCATATTTA (sugars l3 d11 l3, PS)		30	47	
CCTACATCTCATACTTG (sugars l3 d12 l2, PS)				target mRNA inhibition [1]: 96.1%
CCTACATCTCATACTTG (sugars l4 d11 l2, PS)		-13	17	target mRNA inhibition (Human Neuronal Cell, 5 µM): 12%; target mRNA inhibition [1]: 94.2%
CCTATGTTAATACTTT (sugars l4 d10 l2, PS)		25	29	
CCTCAATACTCTACTT (sugars l4 d10 l2, PS)		43	54	
CCTCTGCTTATAACTT (sugars l3 d10 l3, PS)		47	68	
CCTTAGTATTACAATT (sugars l4 d10 l2, PS)		58	71	
CCTTTAATGCTTCTAAC (sugars l2 d11 l4, PS)		35	53	
CCTTTCCAATGAATCT (sugars l3 d10 l3, PS)		45	60	
CCTTTCCAATGAATCTA (sugars l2 d11 l4, PS)		53	59	
CTACATCTCATACTTGC (sugars l2 d13 l2, PS)		-11	-20	target mRNA inhibition (Human Neuronal Cell, 5 µM): 8%; target mRNA inhibition [1]: 90.4%
CTATTCTCAGTATTAT (sugars l3 d10 l3, PS)		19	13	
CTATTTAATTTACACTT (sugars l3 d11 l3, PS)		15	13	
CTCAAAGATCATTCTCA (sugars ldlldddddddlddlll, PS)	69			
CTCATACTTGCTTTAAT (sugars l2 d13 l2, PS)		-18	13	target mRNA inhibition (Human Neuronal Cell, 5 µM): 17%; target mRNA inhibition [1]: 84.1%
CTCCAACATAGATCCTC (sugars l3 d11 l3, PS)		52	60	
CTCTCCTCAAGATCAAC (sugars l3 d11 l3, PS)		23	42	

Sequence	target mRNA inhibition (Human Neuronal Cell, 7.5 µM) [%]	target mRNA inhibition (Human Neuronal Cell, 0.2 µM) [%]	target mRNA inhibition (Human Neuronal Cell, 1 µM) [%]	also measured
CTCTGCTTATAACTTT (sugars l4 d10 l2, PS)		20	53	
CTGCCATCTTTATTTAT (sugars l4 d11 l2, PS)		5	9	
CTGTACACAATCAACA (sugars l4 d10 l2, PS)		54	63	
CTGTATACACCATCCC (sugars l2 d12 l2, PS)		62	62	
CTGTATACACCATCCCA (sugars l1 d1 l1 d12 l2, PS)	48			
CTGTATACACCATCCCA (sugars l1 d11 l2 d1 l2, PS)	53			
CTGTATACACCATCCCA (sugars ldlddddddddddldll, PS)	62			
CTGTATACACCATCCCA (sugars ldldlddddddddldll, PS)	62			
CTGTTTATACCCTTTCCA (sugars l1 d3 l1 d11 l2, PS)	50			
CTTACCAATAGTTACC (sugars l4 d10 l2, PS)		45	65	
CTTAGACTTCACCTTTC (sugars l2 d11 l4, PS)		49	41	
CTTCAAGAATTCTCTC (sugars l2 d10 l4, PS)		44	43	
CTTGACTACACATCTT (sugars l3 d10 l3, PS)		50	54	
CTTTCCATTTATTTCCATT (sugars lddddldddddddddldll, PS)	59			
CTTTCCATTTATTTCCATTT (sugars ldddddddddddddldldll, PS)	47			
CTTTTAACCAGAGTG (sugars l4 d7 l4, PS)	54			
CTTTTAACCAGAGTGG (sugars l4 d9 l3, PS)	65			
CTTTTAACCAGAGTGGCAT (sugars l3 d13 l3, PS)	62			
GAAAATCTCAACTACCATT (sugars l2 d1 l2 d10 l4, PS)	60			
GAAAATCTCAACTACCATT (sugars l2 d12 l5, PS)	49			
GAAAATCTCAACTACCATT (sugars l4 d10 l1 d1 l3, PS)	45			
GAAAATCTCAACTACCATT (sugars ldllddddddddldldlll, PS)	57			
